Data from US20230028880A1, “CD38-BINDING AGENTS AND USES THEREOF” (Biohaven Therapeutics Ltd., priority 2019, published 2023).
Where “and” joins values, the source holds several entries; their conditions need not be identical. Equal entries are not always repeated.

What was measured:
Daudi cells [1] = assay: Intraperitoneal lavage model: CFSE-labelled Daudi cells in SCID mice; type: in vivo; conditions: I-17 1, 10, 30 mg/kg + IVIG 10 mg/mouse sub-Q, 16-18 hours (FIG. 9)
Experimental: On day 0 animals were weighed and randomized. Mice were assigned to different groups and treated as described below. CFSE labelled Daudi cells were prepared as follows:
• Reagents used: PBS (Sterile) • Quenching Buffer PBS+10% FBS • RPMI (no additives) no P/S; no FBS • Invitrogen—CellTrace CFSE Cell Proliferation Kit, for Flow Cytometry (Cat#C34570) • Warm the sterile PBS and all other media to 37 degree Celsius before use for all of the following procedures listed below. […]
After 16-18 hours the mice were sacrificed via CO2 asphyxiation and had their peritoneal cavity flushed with 5 mls of PBS with 1% BSA. Samples were processed and analyzed using IP Lavage Processing is described in 00765. Samples were evaluated for tumor cell counts. […]

Daudi cells [2] = assay: KILR ADCC killing assay: KILR-transfected Daudi cells with purified NK cells (% dead cells); type: cell-based; conditions: for % dead cells, KILR ADCC killing assay: KILR Daudi cells with purified NK cells, duplicate columns
In short: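 Daudi cells carrying a KILR ePL-tagged beta-gal reporter were co-cultured with purified NK cells; cell death releases the reporter into the medium. Complementing enzyme acceptor in the detection reagent gives chemiluminescence, read as % dead cells.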

## CCCCC[C@@H]1NC(=O)[C@H](CCCNC(=N)N)NC(=O)[C@H](C)NC(=O)CSC[C@@H](C(=O)NCCOCCOCCOCCOCCOCCOCCn2nnc3c2CCC2C(CC3)C2COC(=O)N2CCC(C(=O)NCC(=O)N[C@H](CCC(=O)N[C@H](CCC(=O)N[C@H](CCC(=O)O)C(=O)N[C@H](CCC(=O)N[C@H](CCC(=O)NCC(=O)NCC(=O)N[C@@H](CC(=O)O)C(=O)N[C@H]3CSSC[C@@H](C(=O)N[C@H](C(=O)O)[C@@H](C)O)NC(=O)[C@H](Cc4c[nH]c5ccccc45)NC(=O)[C@H](C(C)C)NC(=O)[C@H](CC(C)C)NC(=O)[C@H](CCC(=O)O)NC(=O)CNC(=O)[C@H](CC(C)C)NC(=O)[C@H](Cc4c[nH]cn4)NC(=O)[C@H](Cc4c[nH]c5ccccc45)NC(=O)[C@H](C)NC3=O)C(=O)O)C(=O)O)C(=O)O)C(=O)O)CC2)NC(=O)[C@H](CC(=O)O)NC(=O)[C@H](CCCCC)NC(=O)[C@H](Cc2ccc(-c3ccccc3)cc2)NC(=O)[C@H](CC(C)C)NC(=O)[C@H](C(C)C)NC(=O)CNC(=O)[C@H](CC(=O)O)NC(=O)[C@H](Cc2c[nH]cn2)NC(=O)[C@H](Cc2ccc(O)cc2)NC1=O (some centres unmarked) [I-17]
Daudi cells [1]
  number of CD38 expressing Daudi cells in intraperitoneal cavity: can effectively reduce the number of target cells
Daudi cells [2]; KILR Daudi cells, purified NK cells, one set of experiments (FIG. 3)
  EC50: 5.9 nM
Daudi cells [2]; compound 0.3 nM
  % dead cells, KILR ADCC killing assay: 5.8% and 5.1%
Daudi cells [2]; compound 1 nM
  % dead cells, KILR ADCC killing assay: 5.6%
Daudi cells [2]; compound 3 nM
  % dead cells, KILR ADCC killing assay: 6.4% and 7.1%
Daudi cells [2]; compound 10 nM
  % dead cells, KILR ADCC killing assay: 7% and 7.7%
Daudi cells [2]; compound 100 nM
  % dead cells, KILR ADCC killing assay: 8.9% and 10.1%
Daudi cells [2]; compound 300 nM
  % dead cells, KILR ADCC killing assay: 8.5% and 9.6%
